Test: CD spectra of peptide in isolation (helicity, 222/208 ratio)
Format: physicochemical
Conditions: 20 °C, 150 μM total peptide, pH 7.0
Experimental: ATF3, ATF3W_a, and ATF3W_eg and combined hit sequence ATF3W_aeg were synthesized using solid phase peptide synthesis, purified by RP-HPLC, and verified for correct mass using ESI-MS (Figure S3), after which circular dichroism (CD) was used to characterize both ATF3 and antagonist peptides for helicity and interactions as homodimers, as well as heterodimers with the ATF3 target. Global secondary analysis of both homodimeric and heterodimeric systems was carried out at a total peptide concentration of 150 μM to keep equimolar concentrations of each component helix. The 222/208 ratio was used to provide evidence on whether the helices were likely to be monomeric or adopt quaternary structure.[13] […] Furthermore, incubation of ATF3 with ATF3W_aeg elicited a significant conformational change in the sample relative to the average of the component peptides (Figure 6d black line vs red hash), providing compelling evidence for an interaction.[14] In addition, the component PCA hits were examined using CD.
Figure 6 CD spectra data indicates a ATF3-ATF3W_aeg interaction. […] Spectra were next measured at 20 and 5 °C and again post-thermal denaturation (PM 20 °C to establish reversible that unfolding is fully reversible) at a total peptide concentration of 150 μM and presented as mean residue ellipticity (MRE). […]

## Ac-ELAALEQKAYALKQENAALEKEVAALEQKIAALK-NH2 (N-terminus and C-terminus assumed) [ATF3W_aeg]
10 mM potassium phosphate, 100 mM potassium fluoride
  fractional helicity (fH), peptide in isolation: ~38%
  222/208 ratio, peptide in isolation: 0.76
